The record followed here is US20180354909A1, “SUBSTITUTED BENZIMIDAZOLIUM, PYRIDO-IMIDAZOLIUM, OR PYRAZINO-IMIDAZOLIUM COMPOUNDS AS CHEMOTHERAPEUTICS” (The Board of Regents of the University of Texas System, priority 2015, published 2018).

The subject of this assay is Mut6. In words: Cytotox testing (CellTiter-Glo ATP assay) in Mut6 cells. It is filed as cell-based, mouse. Particulars: Mus musculus, 96 h, Mut6 cells, 4 days, CellTiter-Glo; read-out: Activity in Mut6 [EC50]. As for the experimental part: Mut6 tumor cells were cultured in DMEM/F12 media supplemented by EGF (10 ng/mL), basic FGF (10 ng/mL), heparin (4 ug/mL), glucose (total 21 mM), NaHCO3 (113 μg/mL), Hepes (119 μg/mL), glutamine (2 mM), sodium pyruvate (1 mM), N2 supplement (ThermoFisher Gibco 17502-048, 100×, at 100-fold dilution), B27 supplement (ThermoFisher Gibco 12587-010, 50×, at 100-fold dilution), and penicillin/streptomycin (ThermoFisher, final 1%). Cells were maintained in Ultra-low attachment plate (Corning) as sphere-forming cells. For ATP assays and protein/RNA isolation, cells were plated into 96-well plates or 6-well plated that were coated with poly-lysine (Sigma P6407, 10 μg/mL in PBS, 4 hr at 37° C.) and laminin (ThermoFisher 23017015, ˜5 mg/L in PBS, overnight at 37° C.). MEFs and Astrocytes were cultured in DMEM supplemented with 10% FBS and 1% Penicillin/Streptomycin.
2,000 cells were plated into each well of 96-well plates. About 3 hours later, cells were treated by 12M11, at 800-fold dilution (4 mM stock was diluted into 5 μM final concentration). […] CellTiter-Glo assay (Promega) was performed according to manufacturer's instructions, by adding 20 μL of reagent into each well. Luminescence signal was detected by the PolarStar plate reader (BMG Labtech). Experiments were performed in quadruplicate, and results are presented with mean average −/+ standard deviation. EC505 were calculated by GraphPad Prism6 software.
The compounds described herein were tested using a cell-based cytotoxicity assay against neuronal stem cells in Mut6, which is a mouse glioblastoma model cell line.
In general terms: In ATP-based viability assays light output follows the ATP content of the culture.

As usually defined, the EC50 is the concentration at which the effect is half-maximal. As to `CCc1n(CC(=O)OC23CC4CC(CC(C4)C2)C3)c2ccccc2[n+]1C`, the EC50 lay within 1000 to 5000 nM.

For the compound `CCc1n([C@H](Cc2ccc(O)cc2)C(=O)OC2C[C@H](C)CC[C@H]2C(C)C)c2ccccc2[n+]1C` (stereo partly drawn), the EC50 was 1000 to 5000 nM.

For the compound `CC(C)[C@@H]1CC[C@@H](C)CC1OC(=O)[C@@H](C)n1c(-c2ccc(C(F)(F)F)cc2)[n+](C)c2ccccc21` (stereo partly drawn), the EC50 lay in the range of 100 to 1000 nM.

As for `CCc1n([C@@H](C)C(=O)OC2C[C@H](C)CC[C@H]2C(C)C)c2ccccc2[n+]1C` (stereo partly drawn), the EC50 was below 100 nM.

As to `CC(C)[C@@H]1CC[C@@H](C)CC1OC(=O)Cn1c(-c2cccc(C#N)c2)[n+](C)c2ccccc21` (stereo partly drawn), the EC50 is above 5000 nM.

As to `CCc1n(CC(=O)OCc2ccccc2)c2ccccc2[n+]1C`, the EC50 is above 5000 nM.

`CC(C)[C@@H]1CC[C@@H](C)CC1OC(=O)Cn1c(-c2ccc(F)cc2)[n+](C)c2ccccc21` (stereo partly drawn): the EC50 lay in the range of 100 to 1000 nM.

As for `COC(=O)Cn1c(-c2cccc(C#N)c2)nc2ccccc21`, the EC50 is above 5000 nM.

Turning to `CCc1n(CC(=O)OC2C[C@H](C)CC[C@H]2C(C)C)c2cc(C#N)ccc2[n+]1C` (stereo partly drawn), the EC50 was 1000 to 5000 nM.

With `CCCCN(CCCC)c1ccc(-c2n([C@H](C)C(=O)OC3C[C@H](C)CC[C@H]3C(C)C)c3ccccc3[n+]2C)cc1` (stereo partly drawn), the EC50 is below 100 nM.

As for `CCc1n(CC(=O)OC)c2ccccc2[n+]1C`, the EC50 was above 5000 nM.

`COC(=O)Cn1c(C)nc2ccccc21`: the EC50 was above 5000 nM.

For `CCCCN(CCCC)c1ccc(-c2n([C@@H](C(=O)OC3C[C@H](C)CC[C@H]3C(C)C)C3CC3)c3ccccc3[n+]2C)cc1` (stereo partly drawn), the EC50 was below 100 nM.

As for `CCc1n(CC(=O)OC2C[C@H](C)CC[C@H]2C(C)C)c2cc(Br)ccc2[n+]1C` (stereo partly drawn), the EC50 lay within 100 to 1000 nM.

As for `C=CC[n+]1c(-c2ccc(N(C)C)cc2)n(CC(=O)OC2C[C@H](C)CC[C@H]2C(C)C)c2ccccc21` (stereo partly drawn), the EC50 is below 100 nM.

Take `COC(=O)Cn1c(-c2ccc(C)cc2)nc2ccccc21`: the EC50 is above 5000 nM.

Turning to `CCc1n(CC(=O)OC2C[C@H](C)CC[C@H]2C(C)C)c2ccc(C#N)cc2[n+]1C` (stereo partly drawn), the EC50 is 1000 to 5000 nM.

`CCc1n(CC(=O)OC2C[C@H](C)CC[C@H]2C(C)C)c2cc(F)ccc2[n+]1C` (stereo partly drawn): the EC50 was below 100 nM.

As for `CC(C)[C@@H]1CC[C@@H](C)CC1OC(=O)Cn1c(-c2cccc(Cl)c2)[n+](C)c2ccccc21` (stereo partly drawn), the EC50 was 100 to 1000 nM.

Turning to `CC(C)[C@@H]1CC[C@@H](C)CC1OC(=O)Cn1c(-c2ccc(Cl)cc2)[n+](C)c2ccccc21` (stereo partly drawn), the EC50 lay in the range of 100 to 1000 nM.

For the compound `CCc1n(CC(=O)OC2C[C@H](C)CC[C@H]2C(C)C)c2cccnc2[n+]1C` (stereo partly drawn), the EC50 was in the range of 100 to 1000 nM.

`CCc1n(CC(=O)O[C@H]2CC[C@@H](C)CC2)c2ccccc2[n+]1C`: the EC50 was above 5000 nM.

`CCc1n(CC(=O)OC2C[C@H](C)CC[C@H]2C(C)C)c2ccccc2[n+]1C` (stereo partly drawn): the EC50 was below 100 nM.

Take `CC(C)[C@@H]1CC[C@@H](C)CC1OC(=O)[C@@H](C)n1c(-c2ccc(N(C3CC3)C3CC3)cc2)[n+](C)c2ccccc21` (stereo partly drawn): the EC50 was below 100 nM.

Regarding `CC(C)[C@@H]1CC[C@@H](C)CC1OC(=O)Cn1c(-c2ccc(N3CCCCC3)cc2)[n+](C)c2ccccc21` (stereo partly drawn), the EC50 was below 100 nM.

For the compound `CCc1n([C@@H](C(=O)OC2C[C@H](C)CC[C@H]2C(C)C)C2CCCC2)c2ccccc2[n+]1C` (stereo partly drawn), the EC50 is below 100 nM.

On to `CCc1n(CC(=O)OC(C)(C)C)c2ccccc2[n+]1C`, for which the EC50 was above 5000 nM.

With `CC(C)[C@@H]1CC[C@@H](C)CC1OC(=O)Cn1c(-c2ccc(N3CCCC3)cc2)[n+](C)c2ccccc21` (stereo partly drawn), the EC50 was below 100 nM.

Regarding `CCc1n(CC(=O)OC2C[C@H](C)CC[C@H]2C(C)C)c2ncccc2[n+]1C` (stereo partly drawn), the EC50 was in the range of 100 to 1000 nM.

In the case of `C#CCCOC(=O)Cn1c(CC)[n+](C)c2ccccc21`, the EC50 is above 5000 nM.

As for `CCc1n(CC(=O)OC2C[C@H](C)CC[C@H]2C(C)C)c2ccncc2[n+]1C` (stereo partly drawn), the EC50 lay within 100 to 1000 nM.

As to `COC(=O)Cn1c(-c2ccco2)nc2ccccc21`, the EC50 is above 5000 nM.

On to `CC(C)[C@@H]1CC[C@@H](C)CC1OC(=O)Cn1c(-c2ccc(Cl)c(Cl)c2)[n+](C)c2ccccc21` (stereo partly drawn), for which the EC50 is 100 to 1000 nM.

Turning to `CCN(CC)c1ccc(-c2n([C@@H](C(=O)OC3C[C@H](C)CC[C@H]3C(C)C)C3CC3)c3ccccc3[n+]2C)cc1` (stereo partly drawn), the EC50 was below 100 nM.

`COC(=O)Cn1c(-c2ccc(SC)cc2)nc2ccccc21`: the EC50 was above 5000 nM.

With `CCc1n([C@H](C)C(=O)OC2C[C@H](C)CC[C@H]2C(C)C)c2ccccc2[n+]1C` (stereo partly drawn), the EC50 is below 100 nM.

`CC(C)[C@@H]1CC[C@@H](C)CC1OC(=O)[C@@H](C)n1c(-c2ccc(N(C)C)c(C(F)(F)F)c2)[n+](C)c2ccccc21` (stereo partly drawn): the EC50 was below 100 nM.

In the case of `CC(C)[C@@H]1CC[C@@H](C)CC1OC(=O)[C@@H](C)n1c(-c2ccc(N(C)C)cc2)[n+](C)c2ccccc21` (stereo partly drawn), the EC50 is below 100 nM.

Consider `CCc1n(CC(=O)OC2C[C@H](C)CC[C@H]2C(C)C)c2ccc(Cl)cc2[n+]1C` (stereo partly drawn), for which the half-maximal effective concentration (EC50) lay within 100 to 1000 nM.

`CCc1n(CC(=O)OC2C[C@H](C)CC[C@H]2C(C)C)c2ccc([N+](=O)[O-])cc2[n+]1C` (stereo partly drawn): the EC50 lay in the range of 1000 to 5000 nM.

Regarding `CCc1n(CC(=O)OC2C[C@H](C)CC[C@H]2C(C)C)c2ccc(F)cc2[n+]1C` (stereo partly drawn), the EC50 was in the range of 100 to 1000 nM.

For `C#CC[n+]1c(-c2ccc(N(C)C)cc2)n(CC(=O)OC2C[C@H](C)CC[C@H]2C(C)C)c2ccccc21` (stereo partly drawn), the EC50 is below 100 nM.

For `CC(C)[C@@H]1CC[C@@H](C)CC1OC(=O)[C@@H](C1CC1)n1c(-c2ccc(N(C3CC3)C3CC3)cc2)[n+](C)c2ccccc21` (stereo partly drawn), the EC50 is below 100 nM.

Consider `COC(=O)Cn1c(-c2cccc(F)c2)nc2ccccc21`, for which the EC50 was above 5000 nM.

In the case of `CC(C)[C@@H]1CC[C@@H](C)CC1OC(=O)Cn1c(-c2ccccc2)nc2ccccc21` (stereo partly drawn), the EC50 is above 5000 nM.

As to `CCN(CC)c1ccc(-c2n([C@H](C)C(=O)OC3C[C@H](C)CC[C@H]3C(C)C)c3ccccc3[n+]2C)cc1` (stereo partly drawn), the EC50 is below 100 nM.

On to `CC(C)[C@@H]1CC[C@@H](C)CC1OC(=O)Cn1c(-c2ccc(N(C)C)cc2)[n+](Cc2ccccc2)c2ccccc21` (stereo partly drawn), for which the EC50 was below 100 nM.

On to `Cc1cc(-c2n([C@@H](C(=O)OC3C[C@H](C)CC[C@H]3C(C)C)C3CC3)c3ccccc3[n+]2C)ccc1N(C)C` (stereo partly drawn), for which the EC50 was below 100 nM.

For the compound `CC(C)[C@@H]1CC[C@@H](C)CC1OC(=O)Cn1c(-c2cccc(Br)c2)nc2ccccc21` (stereo partly drawn), the EC50 was above 5000 nM.

With `CC(C)[C@@H]1CC[C@@H](C)CC1OC(=O)Cn1c(-c2ccc(Br)cc2)[n+](C)c2ccccc21` (stereo partly drawn), the EC50 was 100 to 1000 nM.

On to `COC(=O)Cn1c(-c2ccccn2)nc2ccccc21`, for which the EC50 is above 5000 nM.

Consider `COC(=O)Cn1c(-c2ccc(N(C)C)cc2)nc2ccccc21`, for which the EC50 is above 5000 nM.

With `CCc1n([C@@H](C(=O)OC2C[C@H](C)CC[C@H]2C(C)C)C(C)(C)C)c2ccccc2[n+]1C` (stereo partly drawn), the EC50 was 100 to 1000 nM.

With `CCc1n(CC(=O)OC2C[C@H](C)CC[C@H]2C(C)C)c2ccc(Br)cc2[n+]1C` (stereo partly drawn), the EC50 is 100 to 1000 nM.

On to `CC(C)[C@@H]1CC[C@@H](C)CC1OC(=O)Cn1c(-c2ccc(C(C)(C)C)cc2)[n+](C)c2ccccc21` (stereo partly drawn), for which the EC50 is below 100 nM.

Turning to `CCc1n([C@H](Cc2ccc(C)cc2)C(=O)OC2C[C@H](C)CC[C@H]2C(C)C)c2ccccc2[n+]1C` (stereo partly drawn), the EC50 is below 100 nM.

`CC(C)[C@@H]1CC[C@@H](C)CC1OC(=O)Cn1c(-c2ccc(OC(=O)CCCCC3SC[C@H]4NC(=O)N[C@@H]34)cc2)[n+](C)c2ccccc21` (stereo partly drawn): the EC50 was 1000 to 5000 nM.
